Test results taken from patent US20140093641A1, “LUBRICANT COMPOSITIONS CONTAINING FLUOROOXIRANES” (3MM INNOVATIVE PROPERTIES COMPANY, priority 2011, published 2014).

How the values were obtained:
[1] = Solubility testing of lubricants, additives and impurities in deposition solvents; type: physicochemical
Description: A disposable glass vial was placed on a four-place balance and the mass (MV) recorded. The balance with the glass vial was tared and deposition solvent was added (varying from 1 g to 5 g) and the mass (MS) was recorded. The balance with the deposition solvent in the glass vial was tared again. The lubricant was added in a dropwise fashion using a disposable plastic pipet and the mass (ML) recorded. The glass vial was then mixed by hand for 10 seconds to 30 seconds and the solution clarity was visually observed and recorded. If the solution was hazy, the lubricant was considered to have exceeded the solubility limit of the deposition solvent. If the solution was clear, additional drops of lubricant were added to the glass vial, the mass (ML) was recorded, the glass vial was shaken, and the solution clarity was observed. This process was continued until a hazy solution was observed or more than 10% w/w (weight of lubricant to combined weight of lubricant and deposition solvent) was reached. After a hazy solution or more than 10% w/w was reached, the glass vial with the solution was removed from the balance. The balance was tared and the final mass (MF) of the glass vial with deposition solvent and lubricant was measured and recorded. To account for the evaporative losses of the deposition solvent during the experiment, the mass of the vial and the mass of the lubricant added were subtracted from the total mass of the vial with the deposition solvent and lubricant to determine the final mass of deposition solvent (MS*) in the vial (i.e., MS*=MF−MV−ML). Solubility of the lubricant in deposition solvents was calculated as ML/(ML+MS*) and reported in % w/w (weight/weight).
If the endpoint was not clearly observed, the solubility experiment was repeated. Where a range is reported for solubility, the lower number is the highest soluble value and the higher number is the lowest insoluble value.

[2] = tested on: rats; experiment: Short-term inhalation test (acute toxicity); type: in vivo; details: rats exposed for four hours at 50,000 ppm in air

## CCCCCCCCOC(=O)c1ccccc1C(=O)OCCCCCCCC [DOP, Dioctylphthlate]
[1]
  Solubility in C6 Oxirane: <0.9%
  Solubility in C9 Oxirane: <1.1%
  Solubility in NOVEC 7100: 5.1%
  Solubility in PF-5060DL: <0.005%
  Solubility in VERTREL XF: >30%

## FC(F)(F)C1(F)OC1(F)C(F)(C(F)(F)F)C(F)(F)F (stereo not drawn) [C6 Oxirane, 2,3-difluoro-2-(1,2,2,2-tetrafluoro-1-trifluoromethyl-ethyl)-3-trifluoromethyl-oxirane]
[2]
  acute toxicity, short-term inhalation: low acute toxicity
